Measured values taken from PMC3475717, “A Spiroligomer α-Helix Mimic That Binds HDM2, Penetrates Human Cells and Stabilizes HDM2 in Cell Culture” (PLoS ONE, 2012).
“Also recorded” adds a separate entry of the source.

Tests used:
[1] = tested on: mRNA for HDM2 in Huh7 cells; assay: quantitative real-time PCR and end-point PCR of HDM2; format: cell-based, human; settings: β-actin as loading control
Description: Huh7 cells were incubated with spiroligomer 1 and Nutlin-3 in media at 2, 5, 10 and 20 µM for 17 hours at 37°C. […] Huh7 cells were then incubated with 1 at 15 µM and cells were harvested at 2, 4, 6, 8, 12 and 24 hours. […] Our hypothesis is that compound 1 stabilizes HDM2 to proteolysis. Studies are underway to determine the mechanism of HDM2 stabilization by compound 1.
RNA Extraction, Reverse Transcription and PCR Analysis. Total RNA was extracted using High Pure RNA Isolation Kit (Roche Applied Science) according to enclosed instructions. cDNA was prepared using RETROscript Reverse Transcription Kit (Ambion). HDM2 primers (Ensembl […]
(forward) and 5'-[…]-3' (reverse). These primers recognize cDNAs of all HDM2 isoforms with p53 binding sequence7 and generate 102 bp amplicon. β-actin primers for 243 bp PCR transcript (Ensemble gene: Actb, ENSRNOG00000034254) were 5’- […]
[…]-3’ (forward) and 5’-[…]-3’ (reverse).
Primers were designed using Primer3Plus Web Interface. cDNA was amplified using FastStart SYBR Green Master Kit (Roche Applied Science). Real-time quantitative PCR was performed using Stratagene Mx 3005P QPCR system. PCR samples were amplified in 40 cycles; each cycle consisted of 60 sec of denaturation at 95 °C, 60 sec of annealing at 60 °C, and 60 sec of elongation at 72 °C. […]
Figure S.7. Real-time quantitative PCR (A.) and end-point PCR (B.) analysis of HDM2 in Huh7 cells […]

HepG2 cells = assay: cell penetration, fluorescence and confocal microscopy; active vs. passive transport; format: cell-based, human
Description: Cell Culture and Treatment. HepG2 (expressing wild-type p53) and Huh7 (expressing mutant p53) cell lines were purchased from the American Type Culture Collection (ATCC) and cultured as monolayers in Dulbecco’s modified Eagle’s medium (DMEM) (Invitrogen) supplemented with 100 mM nonessential amino acid solution, 100 mM sodium pyruvate, 100 U/mL penicillin, 100 μg/mL streptomycin, and 10% heat inactivated fetal bovine serum (FBS) (all from Hyclone).
Cells were maintained at 37° C and 5% CO2 and were treated with media that contained 0.5%
FBS. Nutlin-3 (Sigma) was dissolved in 0.01% DMSO (Sigma). This concentration of DMSO did not affect the cell phenotype. Both nutlin-3 and spiroligomers were added into the medium for final concentrations of 2 µM, 5 µM, 10 µM and 20 µM for 24 hours. For the western blot experiments detailed below, the time length for incubation with bis-peptide was 17 hours.
Fluorescence and Confocal Microscopy. Fluorescence and confocal microscopy were applied to live and fixed cells. Cells were grown on glass chambers and fixed with ice-cold 95:5 ethanol/acetic acid for 10 minutes at -20 °C. Sections were washed with PBS and mounted in Vectashield aqueous mounting medium with DAPI (Vector laboratories). Fluorescent specimens were analyzed using an ECLIPSE Ti microscope (Nikon), lenses with hardened […]
(1 picture or pasted object on this page, not shown here) […]
filters (Nikon), and a Nikon DS-Fi1 camera, which was operated by NIS Elements computer software (Nikon). Confocal microscopy was performed with a Leica SP-1 microscope, with illumination at 488 nm and spectral detection. […]
Mathematical model described8 and MxPro software (Stratagene) were used to process PCR data. End-point PCR reactions were assayed with PCR Master Mix (Promega). Samples were amplified in 34 cycles; each cycle consisted of 30 sec of denaturation at 95 °C, 30 sec of annealing at 60 °C, and 30 sec of elongation at 72 °C. After 34 cycles, samples were subjected to final elongation for 5 minutes at 72 °C. […]
fluorescence in the images.

HDMX = target: T1, HDMX (Homo sapiens, UniProt O15151); assay: binding experiments with HDMX
T1 sequence (O15151 1-490): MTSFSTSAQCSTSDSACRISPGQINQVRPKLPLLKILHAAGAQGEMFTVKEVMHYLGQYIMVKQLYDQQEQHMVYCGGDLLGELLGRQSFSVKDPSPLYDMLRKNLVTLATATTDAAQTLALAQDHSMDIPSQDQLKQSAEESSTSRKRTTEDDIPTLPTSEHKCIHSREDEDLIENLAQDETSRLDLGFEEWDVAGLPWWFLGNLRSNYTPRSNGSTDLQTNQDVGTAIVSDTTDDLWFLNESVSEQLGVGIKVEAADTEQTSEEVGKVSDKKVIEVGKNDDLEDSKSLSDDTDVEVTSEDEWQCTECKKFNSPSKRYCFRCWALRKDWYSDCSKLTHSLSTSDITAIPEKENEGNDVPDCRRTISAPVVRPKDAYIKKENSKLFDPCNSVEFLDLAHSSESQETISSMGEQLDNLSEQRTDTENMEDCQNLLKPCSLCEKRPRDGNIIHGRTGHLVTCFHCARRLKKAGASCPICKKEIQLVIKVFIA

CC(C)CN1C(=O)[C@@H]2C[C@@]3(CN2C(=O)[C@@]12C[C@H]1C(=O)N(Cc4ccc(Cl)c(Cl)c4)[C@]4(C[C@@H]5C(=O)N[C@@H](CCc6ccccc6)C(=O)N5C4)C(=O)N1C2)NC(=O)[C@@H](CCCCNC(=S)Nc1ccc2c(c1)C(=O)OC21c2ccc(O)cc2Oc2cc(O)ccc21)NC3=O [Compound 1]
level of mRNA for HDM2 [1]: no effect; also recorded: no difference in HDM2 expression levels | mechanism of cell penetration (HepG2 cells): passive diffusion | uptake of fluorescence with active transport inhibited (HepG2 cells; HepG2, 37°C, 60 min pre-treatment with 10 mM sodium azide and 50 mM deoxy-D-glucose, 5 µM, 3.75 hours): indistinguishable from control cells treated with 1 at 37 °C | selectivity HDM2 versus HDMX (HDMX; Kd HDM2 0.4 µM versus Kd HDMX 19 µM): selective for HDM2 | Kd (HDMX; data not shown): 19 µM
